Laboratory results: patent US20140364431A1, “Quinoline and cinnoline derivatives and their applications” (Shenyang Pharmaceutical University, priority 2011, published 2014)
Values after ≈ are worked out from the molar mass of the structure shown. Where two headings read alike, the source gives them in different places.

Key:
[1] = biological target: T1, c-Met (His-tagged recombinant human Met (Amino acids 974-ends)) (Homo sapiens, UniProt P08581); experiment: c-Met kinase assay (ELISA); format: biochemical; conditions: 50 pM c-Met, 5 μM ATP, 20 min
T1 construct: His-tagged recombinant human Met (Amino acids 974-ends); His; host or cells: baculovirus expression
Description: c-Met kinase activity was measured with an ELISA reader.
The reaction mixture was removed by washing with 0.2 μg/mL conjugated horseradish peroxidase (HRP) monoclonal antibody specific for phosphotyrosine (PY20) detecting phosphorylation of the substrate polymer. 1M phosphoric acid was added to terminate the color, the chromogenic substrate (TMB) was tested by spectrophotometry at 450 nm.

[2] = test system: SMMC-7721 (hepatoma cell); experiment: In vitro anti-tumor cellular activity (MTT), SMMC-7721; format: cell-based, human; conditions: for IC50: Homo sapiens, read-out: SMMC-7721 IC50
[3] = test system: U87MG (Human malignant glioblastoma cells); experiment: In vitro anti-tumor cellular activity (MTT), U87MG; format: cell-based; conditions: for IC50: Homo sapiens, U-87 MG, read-out: U87MG IC50
[4] = test system: H460 (human lung cancer cell); experiment: In vitro anti-tumor cellular activity (MTT), H460; format: cell-based; conditions: for IC50: Homo sapiens, read-out: H460 IC50
[5] = test system: HT-29 (colon cancer cell); experiment: In vitro anti-tumor cellular activity (MTT), HT-29; format: cell-based, human; conditions: for IC50: Homo sapiens, read-out: HT-29 IC50
[6] = test system: MKN-45 (human gastric carcinoma cell); experiment: In vitro anti-tumor cellular activity (MTT), MKN-45; format: cell-based; conditions: for IC50: Homo sapiens, MKN-45, 72 h, read-out: MKN-45 IC50; for MKN-45 IC50: MTT, 72 hours

T1 sequence (P08581 974-1390 limits assumed): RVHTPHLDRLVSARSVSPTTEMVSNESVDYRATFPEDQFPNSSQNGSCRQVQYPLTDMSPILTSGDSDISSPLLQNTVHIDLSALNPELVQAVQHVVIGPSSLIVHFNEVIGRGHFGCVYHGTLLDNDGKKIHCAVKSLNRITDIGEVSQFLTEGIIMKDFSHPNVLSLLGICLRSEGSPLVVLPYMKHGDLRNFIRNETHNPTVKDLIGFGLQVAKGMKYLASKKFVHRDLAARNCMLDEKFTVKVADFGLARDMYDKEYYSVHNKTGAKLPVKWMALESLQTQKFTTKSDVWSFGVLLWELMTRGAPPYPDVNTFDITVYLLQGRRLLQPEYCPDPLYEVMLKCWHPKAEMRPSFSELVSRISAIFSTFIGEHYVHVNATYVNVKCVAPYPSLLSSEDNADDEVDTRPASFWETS

Compound	IC50 [1]	IC50 ([2]; SMMC-7721, 72 h)	IC50 ([3]; 72 h)	IC50 ([4]; NCI-H460, 72 h)	IC50 ([5]; HT-29, 72 h)	IC50 [6]	other results
COc1cc2c(Oc3ccc(NC(=O)c4nn(-c5ccc(Br)cc5)c5ccccc5c4=O)cc3F)cnnc2cc1OCCCN1CCCCC1 [Example 65, N-(3-fluoro-4-((6-methoxy-7-(3-(piperidin-1-yl)propoxy)cinnolin-4-yl)oxy)phenyl)-1-(4-bromophenyl)-4-oxo-1,4-dihydrocinnoline-3-carboxamide]	902 nM	–	–	–	–	–	–
COc1cc2c(Oc3ccc(NC(=O)c4nn(-c5ccc(Cl)cc5Cl)c5ccccc5c4=O)cc3F)cnnc2cc1OCCCN1CCCC1 [Example 70, N-(3-fluoro-4-((6-methoxy-7-(3-(pyrrolidin-1-yl)propoxy)cinnolin-4-yl)oxy)phenyl)-1-(2,4-dichlorophenyl)-4-oxo-1,4-dihydrocinnoline-3-carboxamide]	959 nM	1.8 µg/mL (≈ 2.47 µM)	2.1 µg/mL (≈ 2.88 µM)	2.6 µg/mL (≈ 3.56 µM)	3.2 µg/mL (≈ 4.39 µM)	–	–
COc1cc2c(Oc3ccc(NC(=O)c4nn(-c5ccccc5F)c5ccccc5c4=O)cc3F)cnnc2cc1OCCCN1CCCC1 [Example 63, N-(3-fluoro-4-((6-methoxy-7-(3-(pyrrolidin-1-yl)propoxy)cinnolin-4-yl)oxy)phenyl)-1-(2-fluorophenyl)-4-oxo-1,4-dihydrocinnoline-3-carboxamide]	1180 nM	–	–	–	–	–	IC50 ([2]; MTT, 72 hours, SMMC-7721): 0.9 µg/mL (≈ 1.33 µM); IC50 ([3]; MTT, 72 hours, U87MG): 1.8 µg/mL (≈ 2.65 µM); IC50 ([4]; NCI-H460, MTT, 72 hours, H460): 1.6 µg/mL (≈ 2.36 µM); IC50 ([5]; MTT, 72 hours, HT-29): 1.3 µg/mL (≈ 1.92 µM)
COc1cc2c(Oc3ccc(NC(=O)c4nn(-c5c(Cl)cccc5Cl)c5ccccc5c4=O)cc3F)ccnc2cc1OCCCN1CCC(C)CC1 [Example 30, N-(3-fluoro-4-((6-methoxy-7-(3-(4-methylpiperidin-1-yl)propoxy)quinolin-4-yl)oxy)phenyl)-1-(2,6-dichlorophenyl)-4-oxo-1,4-dihydrocinnoline-3-carboxamide]	–	0.1 µg/mL (≈ 0.132 µM)	0.27 µg/mL (≈ 0.357 µM)	0.7 µg/mL (≈ 0.925 µM)	0.49 µg/mL (≈ 0.648 µM)	0.5 µg/mL (≈ 0.661 µM)	–
N-(3-fluoro-4-((6-methoxy-7-(3-(piperidin-1-yl)propoxy)quinolin-4-yl)oxy)phenyl)-1-(2-ch lorophenyl)-4-oxo-1,4-dihydrocinnoline-3-carboxamide dihydrochloride [Example 2]	–	–	–	–	–	–	SMMC-7721 IC50 ([2]; MTT, 72 hours, SMMC-7721): 0.3 µg/mL; U87MG IC50 ([3]; MTT, 72 hours, U87MG): 0.35 µg/mL; MKN-45 IC50 [6]: 0.007 µg/mL; H460 IC50 ([4]; MTT, 72 hours, H460): 0.052 µg/mL; HT-29 IC50 ([5]; MTT, 72 hours, HT-29): 0.19 µg/mL
COc1cc2c(Oc3ccc(NC(=O)c4nn(-c5cccc(C(F)(F)F)c5)c5ccccc5c4=O)cc3F)ccnc2cc1OCCCN1CCCCC1 [Example 6, N-(3-fluoro-4-((6-methoxy-7-(3-(piperidin-1-yl)propoxy)quinolin-4-yl)oxy)phenyl)-1-(3-(trifluoromethyl)phenyl)-4-oxo-1,4-dihydrocinnoline-3-carboxamide]	–	1.3 µg/mL (≈ 1.75 µM)	1.4 µg/mL (≈ 1.89 µM)	1.7 µg/mL (≈ 2.29 µM)	0.63 µg/mL (≈ 0.849 µM)	0.1 µg/mL (≈ 0.135 µM)	–
COc1cc2c(Oc3ccc(NC(=O)c4nn(-c5c(Cl)cccc5Cl)c5ccccc5c4=O)cc3F)ccnc2cc1OCCCN1CCCCC1 [Example 29, N-(3-fluoro-4-((6-methoxy-7-(3-(piperidin-1-yl)propoxy)quinolin-4-yl)oxy)phenyl)-1-(2,6-dichlorophenyl)-4-oxo-1,4-dihydrocinnoline-3-carboxamide]	–	1.2 µg/mL (≈ 1.62 µM)	0.74 µg/mL (≈ 0.996 µM)	0.77 µg/mL (≈ 1.04 µM)	0.44 µg/mL (≈ 0.592 µM)	0.67 µg/mL (≈ 0.902 µM)	–
N-(3-fluoro-4-((6-methoxy-7-(3-(4-methylpiperazin-1-yl)propoxy)quinolin-4-yl)oxy)phenyl)-1-(4-bromophenyl)-4-oxo-1,4-dihydrocinnoline-3-carboxamide [Example 40]	–	–	–	–	–	–	c-Met IC50 [1]: 0.9 µg/mL
N.N.[Cl][Pt][Cl] [Cisplatin, reference compound]	–	–	–	–	–	–	SMMC-7721 IC50 ([2]; MTT, 72 hours, SMMC-7721): 0.9 µg/mL; U87MG IC50 ([3]; MTT, 72 hours, U87MG): 0.19 µg/mL; MKN-45 IC50 [6]: 0.68 µg/mL; H460 IC50 ([4]; MTT, 72 hours, H460): 0.23 µg/mL; HT-29 IC50 ([5]; MTT, 72 hours, HT-29): 1 µg/mL
COc1cc2c(Oc3ccc(NC(=O)c4cn(-c5ccc(F)c(F)c5)c5ccccc5c4=O)cc3F)ccnc2cc1OCCCN1CCCCC1 [Example 60, N-(3-fluoro-4-((6-methoxy-7-(3-(piperidin-1-yl)propoxy)quinolin-4-yl)oxy)phenyl)-1-(3,4-difluorophenyl)-4-oxo-1,4-dihydroquinoline-3-carboxamide]	409 nM	–	–	–	–	–	–
